Tested on: 883617-216-R-J1-PDC complex spheroid viability
Experiment: Anticancer human tumor 883617-216-R-J1-PDC patient-derived bladder carcinoma cell line growth inhibition [POLQ]
Conditions: for IC50: curve of first compound; for viability, T/C: stronger effect = lower value; active means viability on the fitted dose curve at most 10% of control; inactive means the rest
How it was run: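 PDC + HUVEC + MSC complex spheroids; POLQ inhibitors ± partner drugs; top conc. at/near clinical Cmax, else 10 microM (SN-38 1 microM), half-log dilutions; 37 degrees C, 5% CO2.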

[1] = second compound 0.0316 µM, first compound 0.0316 µM
[2] = second compound 0.0316 µM, first compound 0.1 µM
[3] = second compound 0.0316 µM, first compound 0.316 µM
[4] = second compound 0.0316 µM, first compound 1 µM
[5] = second compound 0.0316 µM, first compound 3.16 µM
[6] = second compound 0.0316 µM, first compound 10 µM
[7] = second compound 0.1 µM, first compound 0.0316 µM
[8] = second compound 0.1 µM, first compound 0.1 µM
[9] = second compound 0.1 µM, first compound 0.316 µM
[10] = second compound 0.1 µM, first compound 1 µM
[11] = second compound 0.1 µM, first compound 3.16 µM
[12] = second compound 0.1 µM, first compound 10 µM
[13] = second compound 0.316 µM, first compound 0.0316 µM
[14] = second compound 0.316 µM, first compound 0.1 µM
[15] = second compound 0.316 µM, first compound 0.316 µM
[16] = second compound 0.316 µM, first compound 1 µM
[17] = second compound 0.316 µM, first compound 3.16 µM
[18] = second compound 0.316 µM, first compound 10 µM
[19] = second compound 1 µM, first compound 0.0316 µM
[20] = second compound 1 µM, first compound 0.1 µM
[21] = second compound 1 µM, first compound 0.316 µM
[22] = second compound 1 µM, first compound 1 µM
[23] = second compound 1 µM, first compound 3.16 µM
[24] = second compound 1 µM, first compound 10 µM
[25] = second compound 3.16 µM, first compound 0.0316 µM
[26] = second compound 3.16 µM, first compound 0.1 µM
[27] = second compound 3.16 µM, first compound 0.316 µM
[28] = second compound 3.16 µM, first compound 1 µM
[29] = second compound 3.16 µM, first compound 3.16 µM
[30] = second compound 3.16 µM, first compound 10 µM
[31] = second compound 10 µM, first compound 0.0316 µM
[32] = second compound 10 µM, first compound 0.1 µM
[33] = second compound 10 µM, first compound 0.316 µM
[34] = second compound 10 µM, first compound 1 µM
[35] = second compound 10 µM, first compound 3.16 µM
[36] = second compound 10 µM, first compound 10 µM
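Further: spheroids exposed to compounds for seven days before readout.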
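Wherever viability, T/C is given: 100% = DMSO vehicle control viability.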

C#Cc1c(F)ccc2cc(O)cc(-c3ncc4c(N5CC6CCC(C5)N6)nc(OCC56CCCN5CC(F)C6)nc4c3F)c12 (stereo not given) + Nc1ccc(C#CCN(C(=O)Cc2ncc(C(F)(F)F)cc2C(F)(F)F)c2ccc(F)cc2)nn1
> 10 µM: IC50 (second compound 0.0316 µM) | IC50 (second compound 0.1 µM) | IC50 (second compound 0.316 µM) | IC50 (second compound 1 µM) | IC50 (second compound 3.16 µM) | IC50 (second compound 10 µM)
inactive: viability, T/C [1] 82% | viability, T/C [2] 92.8% | viability, T/C [3] 97.7% | viability, T/C [4] 90.3% | viability, T/C [5] 71.7% | viability, T/C [6] 75.1% | viability, T/C [7] 100% | viability, T/C [8] 98.5% | viability, T/C [9] 90.6% | viability, T/C [10] 93.7% | viability, T/C [11] 93% | viability, T/C [12] 81% | viability, T/C [13] 86.8% | viability, T/C [14] 84.2% | viability, T/C [15] 87.8% | viability, T/C [16] 78.7% | viability, T/C [17] 82.1% | viability, T/C [18] 84.8% | viability, T/C [19] 108% | viability, T/C [20] 87.7% | viability, T/C [21] 84.7% | viability, T/C [22] 77.9% | viability, T/C [23] 82.2% | viability, T/C [24] 80.1% | viability, T/C [25] 91.1% | viability, T/C [26] 89.7% | viability, T/C [27] 89.1% | viability, T/C [28] 101% | viability, T/C [29] 102% | viability, T/C [30] 88.1% | viability, T/C [31] 102% | viability, T/C [32] 109% | viability, T/C [33] 113% | viability, T/C [34] 108% | viability, T/C [35] 99.3% | viability, T/C [36] 102%

C=CC(=O)N1CCN(c2nc(=O)n(-c3c(C)ccnc3C(C)C)c3nc(-c4c(O)cccc4F)c(F)cc23)C(C)C1 (stereo not given) + Cc1cccc(N(C)C(=O)C2C(O)CCN2c2nc(C)cc(C(F)(F)F)c2C#N)c1
> 10 µM: IC50 (second compound 0.0316 µM) | IC50 (second compound 0.1 µM) | IC50 (second compound 0.316 µM) | IC50 (second compound 1 µM) | IC50 (second compound 3.16 µM) | IC50 (second compound 10 µM)
inactive: viability, T/C [1] 72.4% | viability, T/C [2] 66.9% | viability, T/C [3] 75.6% | viability, T/C [4] 84.9% | viability, T/C [5] 84.2% | viability, T/C [6] 73.4% | viability, T/C [7] 74.2% | viability, T/C [8] 79.3% | viability, T/C [9] 75.6% | viability, T/C [10] 80.8% | viability, T/C [11] 79.2% | viability, T/C [12] 81.3% | viability, T/C [13] 80.2% | viability, T/C [14] 62% | viability, T/C [15] 72% | viability, T/C [16] 82.8% | viability, T/C [17] 85.1% | viability, T/C [18] 87.2% | viability, T/C [19] 71.4% | viability, T/C [20] 66.2% | viability, T/C [21] 67.3% | viability, T/C [22] 83.2% | viability, T/C [23] 90.6% | viability, T/C [24] 79.9% | viability, T/C [25] 65% | viability, T/C [26] 59.8% | viability, T/C [27] 68.6% | viability, T/C [28] 76.1% | viability, T/C [29] 100% | viability, T/C [30] 78.3% | viability, T/C [31] 78.3% | viability, T/C [32] 77.3% | viability, T/C [33] 84% | viability, T/C [34] 86.6% | viability, T/C [35] 101% | viability, T/C [36] 82.7%

CCCS(=O)(=O)Nc1ccc(F)c(C(=O)c2c[nH]c3ncc(-c4ccc(Cl)cc4)cc23)c1F + Nc1ccc(C#CCN(C(=O)Cc2ncc(C(F)(F)F)cc2C(F)(F)F)c2ccc(F)cc2)nn1
> 10 µM: IC50 (second compound 0.316 µM) | IC50 (second compound 1 µM) | IC50 (second compound 3.16 µM) | IC50 (second compound 10 µM)
inactive: viability, T/C [1] 91.8% | viability, T/C [2] 104% | viability, T/C [3] 91.6% | viability, T/C [4] 102% | viability, T/C [5] 106% | viability, T/C [6] 47.2% | viability, T/C [7] 98.2% | viability, T/C [8] 86% | viability, T/C [9] 109% | viability, T/C [10] 112% | viability, T/C [11] 85% | viability, T/C [12] 43.5% | viability, T/C [13] 104% | viability, T/C [14] 92.8% | viability, T/C [15] 103% | viability, T/C [16] 111% | viability, T/C [17] 91.7% | viability, T/C [18] 54.5% | viability, T/C [19] 111% | viability, T/C [20] 103% | viability, T/C [21] 89.2% | viability, T/C [22] 92.4% | viability, T/C [23] 88.7% | viability, T/C [24] 50.7% | viability, T/C [25] 111% | viability, T/C [26] 102% | viability, T/C [27] 110% | viability, T/C [28] 98.3% | viability, T/C [29] 99.6% | viability, T/C [30] 59.7% | viability, T/C [31] 106% | viability, T/C [32] 107% | viability, T/C [33] 118% | viability, T/C [34] 125% | viability, T/C [35] 95.2% | viability, T/C [36] 57.6%
9.41 µM: IC50 (second compound 0.0316 µM)
8.35 µM: IC50 (second compound 0.1 µM)

CC1COCCN1c1cc(C2(S(C)(=N)=O)CC2)nc(-c2ccnc3[nH]ccc23)n1 (stereo not given) + Nc1ccc(C#CCN(C(=O)Cc2ncc(C(F)(F)F)cc2C(F)(F)F)c2ccc(F)cc2)nn1
3.53 µM: IC50 (second compound 10 µM)
inactive: viability, T/C [1] 110% | viability, T/C [2] 108% | viability, T/C [3] 89.2% | viability, T/C [4] 76.8% | viability, T/C [5] 59.7% | viability, T/C [6] 42.5% | viability, T/C [7] 82.7% | viability, T/C [8] 101% | viability, T/C [9] 89.8% | viability, T/C [10] 76.4% | viability, T/C [11] 62% | viability, T/C [12] 39.6% | viability, T/C [13] 96.7% | viability, T/C [14] 111% | viability, T/C [15] 93.1% | viability, T/C [16] 73.4% | viability, T/C [17] 56.7% | viability, T/C [18] 40.2% | viability, T/C [19] 99.5% | viability, T/C [20] 90.3% | viability, T/C [21] 87.5% | viability, T/C [22] 65.4% | viability, T/C [23] 56.6% | viability, T/C [24] 37.4% | viability, T/C [25] 114% | viability, T/C [26] 93.1% | viability, T/C [27] 97.6% | viability, T/C [28] 82.3% | viability, T/C [29] 63.8% | viability, T/C [30] 39.4% | viability, T/C [31] 98.1% | viability, T/C [32] 105% | viability, T/C [33] 102% | viability, T/C [34] 83.7% | viability, T/C [35] 52% | viability, T/C [36] 37.5%
5.98 µM: IC50 (second compound 0.0316 µM)
4.27 µM: IC50 (second compound 1 µM)
4.48 µM: IC50 (second compound 0.316 µM)
5.7 µM: IC50 (second compound 0.1 µM)
6.2 µM: IC50 (second compound 3.16 µM)

O=C(c1cc(Cc2n[nH]c(=O)c3ccccc23)ccc1F)N1CCN(C(=O)C2CC2)CC1 + Nc1ccc(C#CCN(C(=O)Cc2ncc(C(F)(F)F)cc2C(F)(F)F)c2ccc(F)cc2)nn1
inactive: viability, T/C [1] 90% | viability, T/C [2] 105% | viability, T/C [3] 83.3% | viability, T/C [4] 89.8% | viability, T/C [5] 90.3% | viability, T/C [6] 67.8% | viability, T/C [7] 92.8% | viability, T/C [8] 109% | viability, T/C [9] 92.7% | viability, T/C [10] 97.5% | viability, T/C [11] 95.4% | viability, T/C [12] 86.4% | viability, T/C [13] 97.9% | viability, T/C [14] 109% | viability, T/C [15] 100% | viability, T/C [16] 89.1% | viability, T/C [17] 75.7% | viability, T/C [18] 87.9% | viability, T/C [19] 100% | viability, T/C [20] 86.8% | viability, T/C [21] 99.3% | viability, T/C [22] 104% | viability, T/C [23] 84.8% | viability, T/C [24] 95.3% | viability, T/C [25] 90% | viability, T/C [26] 99.5% | viability, T/C [27] 92.2% | viability, T/C [28] 91.3% | viability, T/C [29] 81.2% | viability, T/C [30] 73% | viability, T/C [31] 97% | viability, T/C [32] 103% | viability, T/C [33] 100% | viability, T/C [34] 93.1% | viability, T/C [35] 94.2% | viability, T/C [36] 73%
> 10 µM: IC50 (second compound 0.0316 µM) | IC50 (second compound 0.1 µM) | IC50 (second compound 0.316 µM) | IC50 (second compound 1 µM) | IC50 (second compound 3.16 µM) | IC50 (second compound 10 µM)
